Source: ChEMBL document CHEMBL1201862, “PubChem BioAssay data set” (2004)
Values belong to the compound of their own block, whether it stands above or below them. Calls of active or inactive are those of the source.

Columns and labels:
[1] = target: ADP-ribosylation factor GTPase-activating protein 1 (Rattus norvegicus, UniProt Q62848); experiment: Fluorescence polarization-based biochemical high throughput dose response screening assay to identify inhibitors of ADP-ribosylation factor GTPase activating protein 1 (ARFGAP1).; format: functional
[2] = target: Steroidogenic factor 1 (Homo sapiens, UniProt Q13285); experiment: Counterscreen for inverse agonists of the liver receptor homolog-1 (LRH-1; NR5A2): Luminescence-based cell-based high throughput dose response assay to identify inverse agonists of the Steroidogenic Factor 1 Nuclear Receptor (SF1; NR5A1).; format: functional
[3] = nonselective StAR promoter luciferase inhibitors – cell-based, luminescence, luciferase reporter, counter-screen for LRH-1 inverse agonist project, dose response (AID 651969); format: functional
[4] = target: Nuclear receptor subfamily 5 group A member 2 (Homo sapiens, UniProt O00482); format: functional, cell-based;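 note: HEK293T cells transfected with LRH-1 and a StAR promoter luciferase reporter; potency for inhibitors that lower LRH-1 driven reporter light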
[5] = activation of miR-122 Renilla sensor silencing – cell-based, Huh7 psiCHECK-miR122, Renilla luciferase, cherry-picked, dose response (AID 651956); format: functional;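 note: huh7 hepatoma cells stably carrying a psiCHECK-2 miR-122 sensor plasmid; renilla luciferase signal reporting endogenous miR-122 activity after 48 h compound exposure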
[6] = test system: A549; experiment: viability loss in A549 cells – cell-based, plate reader, cherry-pick samples, cytotoxicity control, dose response (AID 687028); format: functional; details: Homo sapiens
[7] = test system: BHK-21; experiment: viability loss in BHK-21 cells – cell-based, plate reader, cherry-pick samples, cytotoxicity control, dose response (AID 687030); format: functional; details: Mesocricetus auratus
[8] = cells; format: functional, cell-based
[9] = cells; format: functional, cell-based; remark: listed apart in the source
[10] = target: T1, Low molecular weight phosphotyrosine protein phosphatase (Homo sapiens, UniProt P24666); format: functional; details: read-out: IC50_Mean
T1 sequence (P24666 whole entry): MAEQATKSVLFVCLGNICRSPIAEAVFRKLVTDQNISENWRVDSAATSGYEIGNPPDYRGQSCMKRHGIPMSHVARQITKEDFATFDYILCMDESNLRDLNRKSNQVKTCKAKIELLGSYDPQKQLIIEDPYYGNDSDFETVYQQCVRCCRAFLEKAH

[11] = target: T2, Carboxy-terminal domain RNA polymerase II polypeptide A small phosphatase 1 (Homo sapiens, UniProt Q9GZU7); experiment: CTDSP1 inhibitors, concentration-response, biochemical, absorbance readout, ultra-high-throughput screen actives (AID 540297); format: functional
T2 sequence (Q9GZU7 whole entry): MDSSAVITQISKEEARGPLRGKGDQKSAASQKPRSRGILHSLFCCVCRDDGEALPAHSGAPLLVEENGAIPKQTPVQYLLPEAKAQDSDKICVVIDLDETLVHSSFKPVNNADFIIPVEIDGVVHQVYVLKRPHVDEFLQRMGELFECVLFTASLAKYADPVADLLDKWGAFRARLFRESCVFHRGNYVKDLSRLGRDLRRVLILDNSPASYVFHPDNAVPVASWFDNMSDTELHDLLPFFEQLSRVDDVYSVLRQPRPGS

[12] = target: T3, Tyrosine-protein phosphatase non-receptor type 22 (Homo sapiens, UniProt Q9Y2R2); experiment: PTPN22 enzyme inhibitors – biochemical, fluorescence, LYP catalytic domain, selectivity assay for LMPTP inhibitor project, dose response (AID 652006); format: functional; details: read-out: IC50_Mean
T3 sequence (Q9Y2R2 whole entry): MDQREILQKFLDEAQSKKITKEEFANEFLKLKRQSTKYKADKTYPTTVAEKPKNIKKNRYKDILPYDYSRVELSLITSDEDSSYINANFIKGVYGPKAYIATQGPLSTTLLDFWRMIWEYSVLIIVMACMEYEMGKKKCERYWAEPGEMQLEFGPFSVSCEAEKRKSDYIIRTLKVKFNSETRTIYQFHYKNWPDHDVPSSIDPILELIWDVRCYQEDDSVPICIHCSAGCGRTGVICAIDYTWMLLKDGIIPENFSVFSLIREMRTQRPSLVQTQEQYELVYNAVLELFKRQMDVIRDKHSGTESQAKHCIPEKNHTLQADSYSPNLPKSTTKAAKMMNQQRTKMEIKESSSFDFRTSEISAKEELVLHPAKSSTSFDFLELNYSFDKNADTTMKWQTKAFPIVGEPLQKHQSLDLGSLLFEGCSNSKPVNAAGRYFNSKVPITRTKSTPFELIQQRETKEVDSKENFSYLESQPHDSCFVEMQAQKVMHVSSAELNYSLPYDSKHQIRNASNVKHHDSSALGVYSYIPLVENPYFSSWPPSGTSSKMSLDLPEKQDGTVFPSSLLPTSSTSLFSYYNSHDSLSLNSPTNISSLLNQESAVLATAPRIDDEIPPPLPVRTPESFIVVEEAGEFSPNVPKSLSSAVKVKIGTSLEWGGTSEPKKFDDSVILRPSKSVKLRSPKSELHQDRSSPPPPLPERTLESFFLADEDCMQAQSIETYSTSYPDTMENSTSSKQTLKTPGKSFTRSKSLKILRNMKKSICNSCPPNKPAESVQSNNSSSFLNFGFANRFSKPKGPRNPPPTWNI

[13] = target: T1, Low molecular weight phosphotyrosine protein phosphatase; format: functional; details: read-out: IC50_Mean; remark: listed apart in the source
[14] = target: SWI/SNF-related matrix-associated actin-dependent regulator of chromatin subfamily A member 2 (Homo sapiens, UniProt P51531); experiment: Luminescence-based cell-based high throughput dose response assay to identify activators of the function of SWI/SNF related, matrix associated, actin dependent regulator of chromatin, subfamily a, member 2 (SMARCA2, BRM).; format: functional
[15] = Counterscreen for activators of the function of SWI/SNF related, matrix associated, actin dependent regulator of chromatin, subfamily a, member 2 (SMARCA2, BRM): Luminescence-based cell-based high throughput dose response assay to identify non-selective compounds using the VP16 reporter assay.; format: functional
[16] = OVCAR-3 cell viability loss – plate reader, dry powder samples, PAX8 inhibitor project, dose response (AID 743044); format: functional, cell-based
[17] = IGROV1 cell killing – plate reader, dry powder samples, PAX8 inhibitor project, dose response (AID 743043); format: functional, cell-based; details: IGROV-1
[18] = target: Paired box protein Pax-8 (Homo sapiens, UniProt Q06710); experiment: PAX8 transcriptional activity inhibition in RMG-I – RMG-I cells, luciferase, cherry-pick, dose response (AID 687027); format: functional, cell-based;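 note: luciferase reporter driven by Pax8 target thyroperoxidase promoter measured by SteadyGlo luminescence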
[19] = OVCAR8 cell viability loss – plate reader, dry powder samples, PAX8 project, dose response (AID 743197); format: functional, cell-based; details: OVCAR-8
[20] = A2780 cell killing – plate reader, dry powder samples, cytotoxicity control, dose response (AID 743046); format: functional, cell-based
[21] = HGIII-sPLA2 enzyme inhibition potency – biochemical, QFRET, IC50, dose response (AID 743457);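 note: green fluorescence rise as the enzyme cleaves BODIPY PC-A2 in liposomes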
[22] = cytotoxicity in HEK293 background cells – cell-based, dry powder, set 2, counter-screen for EBV LMP1 inhibitor project, dose response (AID 624374); format: functional
[23] = target: Disintegrin and metalloproteinase domain-containing protein 17 (Homo sapiens, UniProt P78536); experiment: inhibition of ADAM17 substrate cleavage – biochemical, quenched FRET substrate, counter-screen for ADAM10 exosite inhibitor project, dose response (AID 743253)
[24] = potency of ADAM10 substrate cleavage blockers – biochemical, QFRET, dose response (AID 743254);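 note: ADAM10 enzyme with the DM2 quenched FRET peptide as substrate; EDANS fluorescence gain as the protease cuts the substrate; inhibitor potency against ADAM10 proteolytic activity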
[25] = HEK-293T viability loss after treatment – luminescence, T-cell screen hits, cytotoxicity control for TCR NF-kB inhibitor project, dose response (AID 489026); format: functional, cell-based;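 note: cells exposed to compound about 14 hours before the viability readout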
[26] = test system: BJ; experiment: cells; format: functional, cell-based; details: Homo sapiens
[27] = target: Photoreceptor-specific nuclear receptor (Homo sapiens, UniProt Q9Y5X4); format: functional, cell-based;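 note: CHO-S cells with Gal4-NCOR and VP16-NR2E3 two-hybrid luciferase reporter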
[28] = test system: BJ; experiment: BJ-TERT fibroblast viability loss – cell-based, RAS-independent, luminescence, dose response (AID 1933); format: functional; details: Homo sapiens
[29] = test system: BJ; experiment: growth inhibition of engineered Ras-driven BJ cells – cell-based, alamar blue fluorescence, cherrypicked samples, dose response (AID 2631); format: functional; details: Homo sapiens;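 note: confirmatory dose-response assay in RAS-dependent BJ fibroblasts engineered with TERT, LT and ST, with cytotoxicity read by fluorescence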
[30] = test system: BJ; experiment: BJ-TERT-LT-ST fibroblast viability loss – cell-based, RAS-independent, luminescence, dose response (AID 1935); format: functional; details: Homo sapiens;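 note: BJ fibroblasts immortalized with TERT plus LT and ST oncogenes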
[31] = DRD fibroblast viability loss – cell-based, non-viral oncogenic, luminescence, dose response (AID 1934); format: functional; details: Homo sapiens
[32] = target: Protein Wnt-3a (Mus musculus, UniProt P27467); experiment: SAR analysis of small molecule antagonists of Gli-SUFU in a Wnt3a luminescent reporter assay.; format: functional
[33] = target: T4, Matrix metalloproteinase-14 (Homo sapiens, UniProt P50281); experiment: SAR confirmation of uHTS hits for a small molecule inhibitors of MT1-MMP activation in a fluorescence assay.; format: functional
[34] = target: T4, Matrix metalloproteinase-14; experiment: Dose Response confirmation of uHTS hits for a small molecule inhibitors of MT1-MMP activation in a fluorescence assay set 1.; format: functional
[35] = inhibition of bursicon-driven LGR2 cAMP signaling – cell-based, HEK293, CRE-luciferase reporter, cherry pick, dose response (AID 743342); format: functional
[36] = A549 cell cytotoxicity, dose response, cytotoxicity control, plate reader, cherry-pick, antagonist series (AID 743412); format: functional, cell-based

Chain of Paired box protein Pax-8 (Q06710 whole entry): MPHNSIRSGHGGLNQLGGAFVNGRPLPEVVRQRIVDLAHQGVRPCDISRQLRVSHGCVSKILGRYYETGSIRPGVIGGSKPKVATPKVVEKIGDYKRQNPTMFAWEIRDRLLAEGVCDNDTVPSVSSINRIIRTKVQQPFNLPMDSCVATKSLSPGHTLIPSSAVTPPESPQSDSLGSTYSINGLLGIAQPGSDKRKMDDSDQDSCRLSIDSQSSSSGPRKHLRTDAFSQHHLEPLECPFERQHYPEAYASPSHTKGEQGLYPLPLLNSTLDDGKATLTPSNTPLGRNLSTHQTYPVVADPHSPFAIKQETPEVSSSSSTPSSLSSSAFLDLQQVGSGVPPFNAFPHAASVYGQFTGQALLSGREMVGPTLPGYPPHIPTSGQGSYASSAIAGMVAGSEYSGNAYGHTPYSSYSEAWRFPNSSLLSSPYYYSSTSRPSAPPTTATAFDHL
Chain of Protein Wnt-3a (P27467 whole entry): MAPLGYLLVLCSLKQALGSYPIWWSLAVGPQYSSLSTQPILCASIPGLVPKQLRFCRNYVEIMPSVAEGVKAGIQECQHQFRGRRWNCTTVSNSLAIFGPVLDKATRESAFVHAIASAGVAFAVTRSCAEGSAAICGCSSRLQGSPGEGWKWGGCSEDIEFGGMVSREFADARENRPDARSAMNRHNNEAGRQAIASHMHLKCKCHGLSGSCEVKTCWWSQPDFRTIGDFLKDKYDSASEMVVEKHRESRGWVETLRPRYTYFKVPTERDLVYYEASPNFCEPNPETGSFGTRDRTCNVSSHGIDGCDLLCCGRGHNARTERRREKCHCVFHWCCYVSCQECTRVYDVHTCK
Chain of SWI/SNF-related matrix-associated actin-dependent regulator of chromatin subfamily A member 2 (P51531 whole entry): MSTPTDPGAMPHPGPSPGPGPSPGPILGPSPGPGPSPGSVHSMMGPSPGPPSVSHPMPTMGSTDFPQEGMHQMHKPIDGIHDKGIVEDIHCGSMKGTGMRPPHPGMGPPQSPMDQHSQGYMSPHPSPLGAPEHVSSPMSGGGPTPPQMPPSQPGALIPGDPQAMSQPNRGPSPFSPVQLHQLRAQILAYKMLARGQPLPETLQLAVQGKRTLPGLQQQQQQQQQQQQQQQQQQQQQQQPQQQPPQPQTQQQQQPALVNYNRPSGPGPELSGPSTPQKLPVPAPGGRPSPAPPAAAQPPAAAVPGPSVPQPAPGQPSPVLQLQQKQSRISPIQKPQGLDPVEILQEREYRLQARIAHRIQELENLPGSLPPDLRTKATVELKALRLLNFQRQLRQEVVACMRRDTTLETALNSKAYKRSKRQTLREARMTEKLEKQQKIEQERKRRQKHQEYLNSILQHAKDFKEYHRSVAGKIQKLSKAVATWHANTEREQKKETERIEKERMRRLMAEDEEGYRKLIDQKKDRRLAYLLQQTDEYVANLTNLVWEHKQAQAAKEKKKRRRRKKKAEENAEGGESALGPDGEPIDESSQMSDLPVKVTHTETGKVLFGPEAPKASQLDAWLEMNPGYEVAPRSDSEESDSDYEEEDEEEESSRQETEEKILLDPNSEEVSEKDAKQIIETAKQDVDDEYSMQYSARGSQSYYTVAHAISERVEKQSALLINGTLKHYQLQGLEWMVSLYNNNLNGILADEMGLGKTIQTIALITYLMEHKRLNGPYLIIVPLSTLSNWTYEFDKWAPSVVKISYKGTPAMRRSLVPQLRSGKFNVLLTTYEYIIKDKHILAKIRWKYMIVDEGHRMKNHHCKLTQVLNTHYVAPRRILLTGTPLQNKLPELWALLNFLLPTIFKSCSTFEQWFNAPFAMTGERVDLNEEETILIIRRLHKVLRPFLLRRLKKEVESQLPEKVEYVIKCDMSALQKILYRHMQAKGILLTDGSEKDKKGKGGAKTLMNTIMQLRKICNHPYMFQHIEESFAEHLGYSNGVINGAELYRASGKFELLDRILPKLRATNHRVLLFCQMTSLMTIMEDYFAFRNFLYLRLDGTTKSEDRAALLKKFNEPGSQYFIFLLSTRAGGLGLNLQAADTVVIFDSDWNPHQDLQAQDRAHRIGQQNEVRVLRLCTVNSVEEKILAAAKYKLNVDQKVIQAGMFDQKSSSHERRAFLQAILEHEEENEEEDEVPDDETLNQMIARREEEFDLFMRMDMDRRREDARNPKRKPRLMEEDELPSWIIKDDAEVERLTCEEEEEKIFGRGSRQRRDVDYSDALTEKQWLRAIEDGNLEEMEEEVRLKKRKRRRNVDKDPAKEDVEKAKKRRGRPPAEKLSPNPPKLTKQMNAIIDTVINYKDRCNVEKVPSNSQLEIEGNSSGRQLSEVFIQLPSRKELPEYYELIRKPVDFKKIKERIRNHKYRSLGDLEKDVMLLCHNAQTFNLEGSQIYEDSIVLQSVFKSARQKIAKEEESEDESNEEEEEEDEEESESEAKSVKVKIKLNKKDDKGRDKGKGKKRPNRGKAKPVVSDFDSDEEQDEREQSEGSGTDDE
Chain of Steroidogenic factor 1 (Q13285 whole entry): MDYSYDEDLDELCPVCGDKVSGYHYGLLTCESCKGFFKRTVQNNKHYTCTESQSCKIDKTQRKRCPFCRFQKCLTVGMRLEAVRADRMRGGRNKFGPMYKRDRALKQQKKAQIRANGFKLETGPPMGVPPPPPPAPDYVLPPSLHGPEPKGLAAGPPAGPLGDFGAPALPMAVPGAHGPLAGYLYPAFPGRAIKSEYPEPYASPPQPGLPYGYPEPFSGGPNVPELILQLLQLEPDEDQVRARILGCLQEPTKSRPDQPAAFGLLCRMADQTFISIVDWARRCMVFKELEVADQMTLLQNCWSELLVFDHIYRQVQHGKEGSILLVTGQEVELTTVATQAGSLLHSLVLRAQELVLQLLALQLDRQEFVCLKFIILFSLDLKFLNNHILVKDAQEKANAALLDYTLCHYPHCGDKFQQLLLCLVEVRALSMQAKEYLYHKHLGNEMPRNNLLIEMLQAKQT
Chain of Disintegrin and metalloproteinase domain-containing protein 17 (P78536 whole entry, the tested form may be a part): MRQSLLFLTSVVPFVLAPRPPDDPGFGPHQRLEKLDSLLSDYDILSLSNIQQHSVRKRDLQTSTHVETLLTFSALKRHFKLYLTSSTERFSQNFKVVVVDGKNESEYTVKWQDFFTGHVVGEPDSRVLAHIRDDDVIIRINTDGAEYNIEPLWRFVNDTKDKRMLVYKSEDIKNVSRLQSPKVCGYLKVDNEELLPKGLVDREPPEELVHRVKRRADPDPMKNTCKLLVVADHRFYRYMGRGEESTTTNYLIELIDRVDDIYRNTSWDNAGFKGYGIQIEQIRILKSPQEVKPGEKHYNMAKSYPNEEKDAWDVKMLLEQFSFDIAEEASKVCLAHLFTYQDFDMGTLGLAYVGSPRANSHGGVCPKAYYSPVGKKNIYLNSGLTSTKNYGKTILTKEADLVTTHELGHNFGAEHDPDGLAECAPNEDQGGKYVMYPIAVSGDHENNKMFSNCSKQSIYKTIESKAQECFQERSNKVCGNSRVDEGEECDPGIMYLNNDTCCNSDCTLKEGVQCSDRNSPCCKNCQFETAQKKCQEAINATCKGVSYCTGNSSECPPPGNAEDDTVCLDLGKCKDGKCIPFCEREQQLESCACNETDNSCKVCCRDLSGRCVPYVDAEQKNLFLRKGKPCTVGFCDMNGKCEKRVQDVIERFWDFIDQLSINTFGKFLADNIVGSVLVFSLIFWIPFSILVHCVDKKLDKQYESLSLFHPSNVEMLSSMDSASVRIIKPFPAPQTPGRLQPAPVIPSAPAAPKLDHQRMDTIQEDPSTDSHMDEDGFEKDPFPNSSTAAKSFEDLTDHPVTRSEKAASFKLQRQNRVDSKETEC
Chain of ADP-ribosylation factor GTPase-activating protein 1 (Q62848 whole entry): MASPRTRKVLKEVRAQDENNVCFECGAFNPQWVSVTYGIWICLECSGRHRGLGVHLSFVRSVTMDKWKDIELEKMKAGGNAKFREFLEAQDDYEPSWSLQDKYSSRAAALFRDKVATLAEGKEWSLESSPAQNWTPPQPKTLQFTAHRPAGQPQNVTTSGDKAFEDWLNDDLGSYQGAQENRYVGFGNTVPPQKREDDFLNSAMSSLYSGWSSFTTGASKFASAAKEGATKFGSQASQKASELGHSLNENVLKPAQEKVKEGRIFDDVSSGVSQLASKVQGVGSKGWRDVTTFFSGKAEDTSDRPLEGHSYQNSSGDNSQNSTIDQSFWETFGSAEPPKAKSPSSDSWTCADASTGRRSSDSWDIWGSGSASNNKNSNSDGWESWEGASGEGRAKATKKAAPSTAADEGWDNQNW
Chain of Photoreceptor-specific nuclear receptor (Q9Y5X4 whole entry, the tested form may be a part): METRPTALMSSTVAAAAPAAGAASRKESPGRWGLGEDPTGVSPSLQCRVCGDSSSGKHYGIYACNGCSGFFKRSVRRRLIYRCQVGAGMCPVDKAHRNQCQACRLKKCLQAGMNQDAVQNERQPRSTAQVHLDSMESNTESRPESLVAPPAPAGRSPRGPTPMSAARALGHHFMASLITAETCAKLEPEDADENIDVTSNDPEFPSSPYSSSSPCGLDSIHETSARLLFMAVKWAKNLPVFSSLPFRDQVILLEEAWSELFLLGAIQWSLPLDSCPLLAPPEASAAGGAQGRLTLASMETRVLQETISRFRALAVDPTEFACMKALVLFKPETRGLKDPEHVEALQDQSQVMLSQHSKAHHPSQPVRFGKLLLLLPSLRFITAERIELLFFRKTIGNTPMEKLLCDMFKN
Chain of Nuclear receptor subfamily 5 group A member 2 (O00482 whole entry): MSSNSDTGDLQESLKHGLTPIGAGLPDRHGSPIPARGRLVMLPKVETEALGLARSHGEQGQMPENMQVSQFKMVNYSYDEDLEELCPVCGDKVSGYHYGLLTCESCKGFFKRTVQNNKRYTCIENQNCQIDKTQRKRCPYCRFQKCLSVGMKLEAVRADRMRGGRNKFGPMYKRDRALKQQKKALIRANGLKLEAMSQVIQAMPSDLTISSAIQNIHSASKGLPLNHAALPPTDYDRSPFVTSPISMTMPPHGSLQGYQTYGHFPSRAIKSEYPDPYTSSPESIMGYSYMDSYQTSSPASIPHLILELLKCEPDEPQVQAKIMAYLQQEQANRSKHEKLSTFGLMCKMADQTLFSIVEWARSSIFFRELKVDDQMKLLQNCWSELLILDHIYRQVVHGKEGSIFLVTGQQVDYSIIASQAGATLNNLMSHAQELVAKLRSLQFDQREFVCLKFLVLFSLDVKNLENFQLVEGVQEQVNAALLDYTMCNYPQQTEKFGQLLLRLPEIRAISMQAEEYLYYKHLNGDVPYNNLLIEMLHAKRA

IC50 [1]: 133 µM (inactive)
SMILES: Cc1ccc2nc3c(O)n(CC(=O)N4CC(C)CC(C)C4)ncc-3c2c1 (stereo unspecified)

SMILES: O=C(CSc1n[nH]c(-c2ccccc2)n1)Nc1ccc(F)cc1F
IC50 [2]: 3.68 µM (active)
IC50 [3]: 35.9 µM (inactive)
IC50 [4]: 3.99 µM (active)

SMILES: C[C@@H]1CN([C@H](C)CO)C(=O)c2cc(-c3cccc(C#N)c3)cnc2O[C@H]1CN(C)C(=O)C1CCC1
AC50 [5]: 53.7 µM (active)

SMILES: CN(c1cccc(NC(=O)c2ccc(C(C)(C)C)cc2)c1)S(C)(=O)=O
AC50 [6]: 23.1 µM (active)
AC50 [7]: 22.6 µM (active)

SMILES: CC(CNC(=O)[C@@H](Cc1ccccc1)NC(=O)[C@H]1O[C@@H](n2cnc3c(=O)[nH]c(N)nc32)[C@H](O)[C@@H]1O)c1ccccc1 (stereo partly specified)
EC50 [8]: > 29.9 µM (inactive)
IC50 [9]: > 29.9 µM (inactive)

IC50 [10]: 39.7 µM (inactive)
IC50 [11]: 4.51 µM (active)
IC50 [12]: 41.4 µM (inactive)
IC50 [13]: 12.2 µM (active)
SMILES: O=C(N/N=C/c1cccc(Br)c1)c1ccc(Br)cc1

SMILES: O=C1/C(=C/c2ccco2)Cc2ccccc21
EC50 [14]: > 91.1 µM (inactive)
EC50 [15]: > 91.1 µM (inactive)

SMILES: C[C@@H]1CN([C@H](C)CO)C(=O)c2cc(NS(=O)(=O)c3ccc(Cl)cc3)ccc2O[C@@H](C)CCCCO[C@H]1CN(C)S(=O)(=O)c1ccc(Cl)cc1
AC50 [16]: 15.9 µM (active)
AC50 [17]: 32.9 µM (active)
AC50 [18]: 4.76 µM (active)
AC50 [19]: 25.1 µM (active)
AC50 [20]: 54.6 µM (active)

IC50 [21]: > 122 µM (inactive)
SMILES: Cc1cc(C(=O)NN=C(S)Nc2cccc(C(F)(F)F)c2)nn1C

SMILES: C[C@@H]1CN([C@@H](C)CO)C(=O)c2c(c3ccccc3n2C)-c2ccccc2CO[C@@H]1CN(C)C(=O)Nc1ccc(F)cc1
AbsAC35 [22]: 304.17 µM

IC50 [23]: > 69.5 µM (inactive)
IC50 [24]: > 69.5 µM (inactive)
SMILES: CNC(=S)N/N=C/c1cn(CCOc2ccc(OC)cc2)c2ccccc12

SMILES: Cc1cccc(NS(=O)(=O)c2ccc(-c3cnc(C4CC4)o3)cc2)c1C
IC50 [25]: 67.5 µM (inactive)
EC50 [26]: 2.51 µM (active)
IC50 [27]: 6.35 µM (active)
EC50 [28]: 2.67 µM (active)
EC50 [29]: < 0.104 µM (active)
EC50 [30]: 2.88 µM (inconclusive)
EC50 [31]: 2.74 µM (inconclusive)

IC50 [32]: > 21.8 µM (inactive)
SMILES: O=C(Nc1cc(NCC2CCCO2)ncn1)c1ccccc1 (stereo unspecified)

IC50 [33]: > 80 µM (inactive)
IC50 [34]: 11.9 µM (active)
SMILES: Cc1c(C(=O)OCC(=O)NCC2CCCO2)oc2ccccc12 (stereo unspecified)

SMILES: COc1ccc(NC(=O)N(C)C[C@@H]2OCCCC[C@H](C)Oc3ccc(NC(=O)C4CCCCC4)cc3C(=O)N([C@H](C)CO)C[C@@H]2C)cc1
AC50 [35]: 2.67 µM (active)
AC50 [36]: 27.8 µM (active)
